How the values were obtained:
Assay type in all cases: cell-based, human
MRC5 cells [1] = test: Immunofluorescence anti-dsDNA staining of nuclear and cytosolic DNA in young and old MRC5 cells; conditions: 24 hr
Method: Cells were cultured in Lab-Tek II 8-well chamber slides, fixed with 4% PFA (10 min), permeabilized with 0.5% Triton X-100 (5 min), then blocked and stained with antibodies against: dsDNA (Santa Cruz, 1:500), 7H2AX, NUP98, pTBK1 (both Cell Signaling, 1:200), LC3 (Novus Biologicals, 1:200) or biotin-LAMP1 (BioLegend, 1:200), followed by fluorescent secondary antibodies (45 min). Methanol fixation was used for anti-pIRF3 (Cell Signaling, 1:200) staining.
Nuclear and cytosolic DNA signals from 5 of 10× or 20× images (˜50-200 cells per image) were quantified using Fiji. Region of interest (ROI) was defined in each image and threshold set to measure fluorescence above background. Nuclear ROI was defined by DAPI staining and its intensity subtracted from total fluorescence to determine cytoplasmic signal. Quantitative fluorescence was presented as integrated density per cell with cell number determined by particle count of DAPI.

MRC5 cells [2] = test: RT-qPCR expression of IFNI-inducible, inflammatory and cell-cycle genes in young and old cells; conditions: old MRC5 cells
Method: 0.25-1 μg of total RNA was reverse-transcribed with High Capacity cDNA Reverse Transcription kit (Applied Biosystems). Quantitative PCR was then performed using LightCyler® 480 SYBR Master I reagents (Roche) on LightCyler® 96 instrument. Transcript levels were normalized to B2M or GAPDH. Primer pairs used are listed below.

MRC5 cells [3] = test: SA-β-gal activity staining in young and old MRC5 cells; conditions: aged MRC5 cells; Ara-C 10 μM, 24 h; FIG. 6F
Description: (§1) Ara-C, bafilomycin A1 and rapamycin were from Sigma-Aldrich (St. Louis, Mo.); SA β-gal Staining Kit was from Cell Signaling (Danvers, Mass.); TUNEL Apo-Green detection reaction mixture was from Biomake (Houston, Tex.).

MRC5 cells [4] = test: TUNEL assay detecting DNA fragmentation (nicked DNA) in young and old MRC5 cells; conditions: Ara-C 10 μM, 24 hr, FIG. 1B
Description: as §1

[5] = bafilomycin 20 nM, 8 hr, FIG. 2F

For Nc1ccn([C@@H]2O[C@H](CO)[C@@H](O)[C@@H]2O)c(=O)n1 [Ara-C, cytarabine], the “nuclear DNA in old cells (anti-dsDNA IF)” value (MRC5 cells [1]; old MRC5 cells, Ara-C 10 μM, FIG. 1C) was “more nuclear DNA”, the “extranuclear DNA in young cells (anti-dsDNA IF)” value (MRC5 cells [1]; young MRC5 cells, Ara-C 10 μM, FIG. 1C) was “more extranuclear DNA” and the “CXCL10 expression (RT-qPCR)” value (MRC5 cells [2]; Ara-C 10 μM, 24 hr, FIG. 2A) was “further increased”. For the same molecule, the “IL-6 expression (RT-qPCR)” value (MRC5 cells [2]; Ara-C 10 μM, 24 hr, FIG. 2A) was “further increased”, the “MX1 expression (RT-qPCR)” value (MRC5 cells [2]; Ara-C 10 μM, 24 hr, FIG. 2A) was “further increased” and the “percentage of SA-β-gal+ cells” value (MRC5 cells [3]) was “further increased”. The “nicked DNA (TUNEL staining) in old cells” value (MRC5 cells [4]) was “more intense”.

CO/C1=C\C(C)=C\[C@@H](C)[C@@H](O)[C@@H](C)C/C(C)=C/C=C/[C@H](OC)[C@@H]([C@@H](C)[C@@H](O)[C@H](C)[C@@]2(O)C[C@@H](O)[C@H](C)[C@@H](C(C)C)O2)OC1=O [bafilomycin A1] was tested, and the “CXCL10 expression (RT-qPCR)” value (MRC5 cells [2]; [5]) was “increased levels” and the “MX1 expression (RT-qPCR)” value (MRC5 cells [2]; [5]) was “increased levels”.

For CCC(=C/[C@H](C)C/C=C/C(C)=C/[C@@H](C)C(=O)[C@@H](C)[C@H](O)[C@@H](C)C/C(C)=C/C(=O)O)/C=C/[C@@H]1OC(=O)C=C[C@@H]1C [leptomycin B], the “dsDNA staining in nuclei (anti-dsDNA IF)” value (MRC5 cells [1]; LMB-treated cells, 20 nM, FIG. 1D) was “some increase” and the “cytosolic DNA in old cells (anti-dsDNA IF)” value (MRC5 cells [1]; old MRC5 cells, LMB 20 nM, FIG. 1D) was “dramatic reduction”.

— US11766446B2, “Treatment of aging-associated conditions by DNA degradation” (The General Hospital Corporation, priority 2018, dated 2023)
